Measurements: US20090005398A1, “Methods For The Treatment of Central Nervous System Tumors” (priority 2007, published 2009)

Assays:
Assay in all cases: Cell-Titer-Glo cell proliferation
Type in all cases: cell-based
[1] = tested on: HCT116; details: Homo sapiens, HCT-116, colon, 72 h
Procedure: (§1) Exponentially growing cell lines of different tumor origins, cultured in appropriate media containing 10% fetal bovine serum at 37° C. in a 5% CO2 incubator were plated at low density (less than 2000 cells/well) in 96-well plates. Twenty four hours post-plating, cells were treated with different concentrations of compound ranging from 10 uM to 0.04 nM. Several wells were left untreated as a control. Seventy two hours post-treatment, cell numbers were determined using 50-100 ul per well of CellTiter-Glo (Promega #G7573). Plates were incubated at room temperature for 15 minutes and the chemiluminescent signal was read on the Victor V or Envison 2100 reader.
(§2) Concentration of compound that inhibited 50% of cell growth (IC50) was determined by 4 parameter fit of data using XLfit, (value of no cell control was subtracted from all samples for background). The Cell-Titer Glo data are shown in Table 3 below and represent a compilation of several different experiments, each performed using the general parameters outlined above, although minor variations may have been employed in some instances.

[2] = tested on: MV522; details: lung, 72 h
Procedure: as §1, §2

[3] = tested on: COLO205; details: Homo sapiens, COLO 205, colon, 72 h
Procedure: as §1, §2

[4] = tested on: P388; details: Mus musculus, blood, 72 h
Procedure: as §1, §2

[5] = tested on: Hela; details: Homo sapiens, cervix, 72 h
Procedure: as §1, §2

[6] = tested on: LNCaP; details: Homo sapiens, prostate, 72 h
Procedure: as §1, §2

[7] = tested on: PANC-1; details: Homo sapiens, pancreas, 72 h
Procedure: as §1, §2

[8] = tested on: BXPC3; details: Homo sapiens, BXPC-3, pancreas, 72 h
Procedure: as §1, §2

[9] = tested on: SKOV-3; details: Homo sapiens, SK-OV-3, ovary, 72 h
Procedure: as §1, §2

[10] = tested on: HT29; details: Homo sapiens, HT-29, colon, 72 h
Procedure: as §1, §2

[11] = tested on: MiaPaca; details: Homo sapiens, MIA PaCa-2, pancreas, 72 h
Procedure: as §1, §2

[12] = tested on: MCF7; details: Homo sapiens, breast, 72 h
Procedure: as §1, §2

[13] = tested on: MDA-MB-468; details: Homo sapiens, breast, 72 h
Procedure: as §1, §2

[14] = tested on: ASPC3; details: pancreas, 72 h
Procedure: as §1, §2

[15] = tested on: HN5; details: Homo sapiens, head and neck, 72 h
Procedure: as §1, §2

- IC50 [1]: < 500 nM
- IC50 [3]: < 500 nM
- IC50 [4]: < 500 nM
- IC50 [5]: < 500 nM
- IC50 [6]: < 500 nM
- IC50 [7]: < 500 nM
- IC50 [8]: < 500 nM
- IC50 [9]: < 500 nM
- IC50 [10]: < 500 nM
- IC50 [11]: < 500 nM
- IC50 [12]: < 500 nM
- IC50 [13]: < 500 nM
- IC50 [14]: < 500 nM
SMILES: C[C@@H](Oc1cc(-n2cnc3ccc(CN4CCN(C)CC4)cc32)sc1C(N)=O)c1ccccc1C(F)(F)F [Example 1, 5-{6-[(4-Methylpiperazin-1-yl)methyl]-1H-benzimidazol-1-yl}-3-{(1R)-1-[2-(trifluoromethyl)phenyl]ethoxy}thiophene-2-carboxamide]
- IC50 [2]: < 500 nM
- IC50 [15]: < 500 nM
